Assay results as given in patent publication US20230181614A1, “ADMINISTRATION OF CITICOLINE TO IMPROVE COGNITIVE PERFORMANCE, ATTENTIONAL PERFORMANCE, AND MOTOR FUNCTION” (KYOWA HAKKO BIO CO., LTD., priority 2014, published 2023).

Test system: Healthy subjects, ages 13-18
Experiment: General Questionnaire
Type: in vivo, human
Excerpt: Study participants were screened by telephone prior to study enrollment. Healthy subjects, ages 13-18, with no significant medical conditions and no history of co-morbid psychiatric disorder, current Axis I or II diagnosis, or previous participation in a pharmacotherapeutic trial, were selected. Use of any psychotropic medication or any previous head injury resulting in loss of consciousness for 5 or more minutes were used as exclusion criteria. While no participant met criteria for a neuropsychiatric disorder at enrollment, clinical assessments were still completed throughout the study to evaluate changes in mood state. In addition, self-reports of sleep habits, lifestyle, and exercise routines were also administered at baseline as well as at each study visit to assess changes in health habits during study participation. Following the completion of Visit 1 assessment, participants were given their 28-day supply of citicoline (250 mg or 500 mg) or placebo, which was randomly assigned. They were instructed to take one capsule a day every day for the next 28 days. Visit 2 occurred fourteen days after Visit 1. At Visit 2, the remaining study pills were counted and participant dosage calendars were checked to ensure compliance with the protocol. Additional neuropsychological measures and clinical assessments were administered during this visit. Participants returned for Visit 3 fourteen days later, on the 28th day of their study participation. The pill bottle and the dosage calendar were collected from each participant. Urine and blood were again obtained. Participants also participated in similar clinical and neuropsychological testing and clinical measures that were given during visit 1. The General Questionnaire and Exercise and Life Style Questionnaire are self-report questionnaires designed to assess a variety of symptoms, behaviors, and self-perceptions, including mood, complexion, exercise, food, and alcohol habits of each of the participants. The General Questionnaire was administered during each of the three study visits; the Exercise and Life Style Questionnaire was administered during each of the three study visits. The General Questionnaire included five summary categories (Vision, Depression, Attention, Sleep, and Complexion) each of which had multiple individual items. Within and between group analyses are reported below for each of the summary categories.

For `C[N+](C)(C)CCOP(=O)(O)OP(=O)([O-])OC[C@H]1O[C@@H](n2ccc(N)nc2=O)[C@H](O)[C@@H]1O` [citicoline, Cytidine 5′-diphosphocholine], the “General Questionnaire Vision Q2, Mean” value (250 mg/day, V3 (day 28)) was 2.44, the “General Questionnaire Vision Q3, Mean” value (250 mg/day, V3 (day 28)) was 1.81 and the “General Questionnaire Vision Total, Mean” value (250 mg/day, V3 (day 28)) was 6.59. For the same molecule, the “Attention Total V3-V1 Difference Mean” value (500 mg/day) was -5.17, the “Complexion Total V3-V1 Difference Mean” value (500 mg/day) was -1.42 and the “Depression Total V3-V1 Difference Mean” value (500 mg/day) was -5.21. The “Sleep Total V3-V1 Difference Mean” value (500 mg/day) was -3.25, the “Vision Total V3-V1 Difference Mean” value (500 mg/day) was -1.50 and the “Attention Q13 V1 Mean” value (500 mg/day, Visit 1) was 2.42. For the same molecule, the “Attention Q14 V1 Mean” value (500 mg/day, Visit 1) was 2.21, the “Attention Q15 V1 Mean” value (500 mg/day, Visit 1) was 2.63 and the “Attention Q16 V1 Mean” value (500 mg/day, Visit 1) was 2.83. For the same molecule, the “Attention Q17 V1 Mean” value (500 mg/day, Visit 1) was 1.96, the “Attention Q18 V1 Mean” value (500 mg/day, Visit 1) was 2.79 and the “Attention Q19 V1 Mean” value (500 mg/day, Visit 1) was 7.29. For the same molecule, the “Attention Q20 V1 Mean” value (500 mg/day, Visit 1) was 2.54, the “Attention Q21 V1 Mean” value (500 mg/day, Visit 1) was 3.25 and the “Attention Q22 V1 Mean” value (500 mg/day, Visit 1) was 1.83. For the same molecule, the “Attention Q23 V1 Mean” value (500 mg/day, Visit 1) was 2.92, the “Attention Q24 V1 Mean” value (500 mg/day, Visit 1) was 2.46 and the “Attention Total V1 Mean” value (500 mg/day, Visit 1) was 35.13. The “Complexion Q33 V1 Mean” value (500 mg/day, Visit 1) was 2.58, the “Complexion Q34 V1 Mean” value (500 mg/day, Visit 1) was 1.88 and the “Complexion Total V1 Mean” value (500 mg/day, Visit 1) was 4.46. The “Depression Q4 V1 Mean” value (500 mg/day, Visit 1) was 1.75, the “Depression Q5 V1 Mean” value (500 mg/day, Visit 1) was 2.46 and the “Depression Q6 V1 Mean” value (500 mg/day, Visit 1) was 2.21. For the same molecule, the “Depression Q7 V1 Mean” value (500 mg/day, Visit 1) was 3.13, the “Depression Q8 V1 Mean” value (500 mg/day, Visit 1) was 1.92 and the “Depression Q9 V1 Mean” value (500 mg/day, Visit 1) was 3.04. For the same molecule, the “Depression Q10 V1 Mean” value (500 mg/day, Visit 1) was 2.00, the “Depression Q11 V1 Mean” value (500 mg/day, Visit 1) was 2.00 and the “Depression Q12 V1 Mean” value (500 mg/day, Visit 1) was 2.04. For the same molecule, the “Depression Total V1 Mean” value (500 mg/day, Visit 1) was 20.54, the “Sleep Q25 V1 Mean” value (500 mg/day, Visit 1) was 3.54 and the “Sleep Q26 V1 Mean” value (500 mg/day, Visit 1) was 2.54. For the same molecule, the “Sleep Q27 V1 Mean” value (500 mg/day, Visit 1) was 2.00, the “Sleep Q28 V1 Mean” value (500 mg/day, Visit 1) was 2.96 and the “Sleep Q29 V1 Mean” value (500 mg/day, Visit 1) was 2.00. For the same molecule, the “Sleep Q30 V1 Mean” value (500 mg/day, Visit 1) was 2.04, the “Sleep Q31 V1 Mean” value (500 mg/day, Visit 1) was 2.33 and the “Sleep Q32 V1 Mean” value (500 mg/day, Visit 1) was 3.54. For the same molecule, the “Sleep Total V1 Mean” value (500 mg/day, Visit 1) was 20.83, the “Vision Q1 V1 Mean” value (500 mg/day, Visit 1) was 2.75 and the “Vision Q2 V1 Mean” value (500 mg/day, Visit 1) was 2.54. For the same molecule, the “Vision Q3 V1 Mean” value (500 mg/day, Visit 1) was 1.71, the “Vision Total V1 Mean” value (500 mg/day, Visit 1) was 7.00 and the “Attention Q13 V3 Mean” value (500 mg/day, Visit 3) was 1.96. For the same molecule, the “Attention Q14 V3 Mean” value (500 mg/day, Visit 3) was 1.83, the “Attention Q15 V3 Mean” value (500 mg/day, Visit 3) was 1.92 and the “Attention Q16 V3 Mean” value (500 mg/day, Visit 3) was 1.92. The “Attention Q17 V3 Mean” value (500 mg/day, Visit 3) was 1.75, the “Attention Q18 V3 Mean” value (500 mg/day, Visit 3) was 1.92 and the “Attention Q19 V3 Mean” value (500 mg/day, Visit 3) was 8.42. For the same molecule, the “Attention Q20 V3 Mean” value (500 mg/day, Visit 3) was 1.92, the “Attention Q21 V3 Mean” value (500 mg/day, Visit 3) was 2.42 and the “Attention Q22 V3 Mean” value (500 mg/day, Visit 3) was 1.63. The “Attention Q23 V3 Mean” value (500 mg/day, Visit 3) was 2.13, the “Attention Q24 V3 Mean” value (500 mg/day, Visit 3) was 2.17 and the “Attention Total V3 Mean” value (500 mg/day, Visit 3) was 29.96. For the same molecule, the “Complexion Q33 V3 Mean” value (500 mg/day, Visit 3) was 1.75, the “Complexion Q34 V3 Mean” value (500 mg/day, Visit 3) was 1.29 and the “Complexion Total V3 Mean” value (500 mg/day, Visit 3) was 3.04. For the same molecule, the “Depression Q4 V3 Mean” value (500 mg/day, Visit 3) was 1.58, the “Depression Q5 V3 Mean” value (500 mg/day, Visit 3) was 1.88 and the “Depression Q6 V3 Mean” value (500 mg/day, Visit 3) was 1.67. The “Depression Q7 V3 Mean” value (500 mg/day, Visit 3) was 2.25, the “Depression Q8 V3 Mean” value (500 mg/day, Visit 3) was 1.46 and the “Depression Q9 V3 Mean” value (500 mg/day, Visit 3) was 2.00. For the same molecule, the “Depression Q10 V3 Mean” value (500 mg/day, Visit 3) was 1.54, the “Depression Q11 V3 Mean” value (500 mg/day, Visit 3) was 1.38 and the “Depression Q12 V3 Mean” value (500 mg/day, Visit 3) was 1.58. The “Depression Total V3 Mean” value (500 mg/day, Visit 3) was 15.33, the “Sleep Q25 V3 Mean” value (500 mg/day, Visit 3) was 2.50 and the “Sleep Q26 V3 Mean” value (500 mg/day, Visit 3) was 1.71. For the same molecule, the “Sleep Q27 V3 Mean” value (500 mg/day, Visit 3) was 1.83, the “Sleep Q28 V3 Mean” value (500 mg/day, Visit 3) was 2.29 and the “Sleep Q29 V3 Mean” value (500 mg/day, Visit 3) was 1.96. For the same molecule, the “Sleep Q30 V3 Mean” value (500 mg/day, Visit 3) was 1.96, the “Sleep Q31 V3 Mean” value (500 mg/day, Visit 3) was 2.21 and the “Sleep Q32 V3 Mean” value (500 mg/day, Visit 3) was 3.13. The “Sleep Total V3 Mean” value (500 mg/day, Visit 3) was 17.58, the “Vision Q1 V3 Mean” value (500 mg/day, Visit 3) was 1.92 and the “Vision Q2 V3 Mean” value (500 mg/day, Visit 3) was 2.08. For the same molecule, the “Vision Q3 V3 Mean” value (500 mg/day, Visit 3) was 1.50 and the “Vision Total V3 Mean” value (500 mg/day, Visit 3) was 5.50.
